Measurements published in US20160368868A1, “N-(1-CYANO-2-HYDROXY-1-METHYL-ETHYL)-4-(TRIFLUOROMETHYLSULFANYL)BENZAMIDE DERIVATIVES FOR USE AS NEMATOCIDAL DRUGS” (UNIVERSITÄT ZÜRICH Prorektorat MNW, priority 2013, published 2016).

Columns and labels:
Dirofilaria immitis = assay: Activity in vitro against Dirofilaria immitis microfilariae (motility); format: cell-based; settings: at up to 10 μg/mL; efficacy in percent reduced motility of microfilariae; 48 hours at 26° C.
HeLa = assay: Resazurin fluorometric cell viability assay, HeLa; settings: Homo sapiens, 48 h, read-out: IC50 in HeLa
Experimental: (§1) The toxicity towards a human cervical cancer HeLa and a non-cancerous (MRC-5) cell line was determined using the fluorometric cell viability assay (Resazurin) (Ahmed et al., J. Immunol. Methods 1994, 170, 211.), results of which are shown in Table 1.
(§2) Human cervical carcinoma cells (HeLa) cells were cultured in DMEM (Gibco) supplemented with 5% fetal calf serum (FCS, Gibco), 100 U/ml penicillin, 100 μg/ml streptomycin at 37° C. and 5% CO2. The normal human fetal lung fibroblast MRC-5 cell line was maintained in F-10 medium (Gibco) supplemented with 10% FCS (Gibco), penicillin (100 U/ml), and streptomycin (100 μg/ml). Cytotoxicity studies were performed on two different cell lines, namely HeLa, and MRC-5, by a fluorometric cell viability assay using Resazurin (Promocell GmbH). Briefly, one day before treatment, cells were seeded in triplicates in 96-well plates at a density of 4×10^3 cells/well for HeLa and 7×10^3 for MRC-5 in 1041.1 growth medium. Upon treating cells with increasing concentrations of Fc-PZQ derivatives for 48h, the medium was removed, and 100 μl complete medium containing Resazurin (0.2 mg/ml final concentration) were added. After 4h of incubation at 37° C., fluorescence of the highly red fluorescent product Resorufin was quantified at 590 nm emission with 540 nm excitation wavelength in a SpectraMax M5 microplate Reader.

H. contortus = assay: Larval development assay (LDA); settings: for LD50 against H. Contortus: larval development assay, L3 counted after 7 days; for inhibition of the development of H. contortus larvae: at concentrations between 100 μM and 25 μM
MRC-5 = assay: Resazurin fluorometric cell viability assay, MRC-5; settings: Homo sapiens, MRC5, 48 h, read-out: IC50 in MRC-5
Experimental: as §1, §2

CC(C#N)(COC(=O)c1ccccc1)NC(=O)c1ccc(SC(F)(F)F)cc1 (centres unmarked)
Activity against Dirofilaria immitis (Dirofilaria immitis): EC6 at up to 10 μg/mL

C#CC(=O)OCC(C)(C#N)NC(=O)c1ccc(SC(F)(F)F)cc1 (centres unmarked)
Activity against Dirofilaria immitis (Dirofilaria immitis): EC15 at 0-10 μg/mL

CC(C#N)(CO)NC(=O)c1ccc([S+]([O-])C(F)(F)F)cc1 (centres unmarked)
Activity against Dirofilaria immitis (Dirofilaria immitis): EC5 at up to 10 μg/mL

CC(C#N)(CO)NC(=O)c1ccc(S(=O)(=O)C(F)(F)F)cc1 (centres unmarked)
Activity against Dirofilaria immitis (Dirofilaria immitis): EC15 at up to 10 μg/mL

CC(C#N)(CO)NC(=O)c1ccc(C(F)(F)F)cc1 (centres unmarked)
Activity against Dirofilaria immitis (Dirofilaria immitis): EC25 at up to 10 μg/mL

CSc1ccc(C(=O)NC(C)(C#N)CO)cc1 (centres unmarked)
Activity against Dirofilaria immitis (Dirofilaria immitis): EC15 at up to 10 μg/mL

CC(C#N)(CO)NC(=O)c1ccc(F)cc1 (centres unmarked)
Activity against Dirofilaria immitis (Dirofilaria immitis): EC20 at up to 10 μg/mL

CC(C#N)(CO)NC(=O)c1ccc(I)cc1 (centres unmarked)
Activity against Dirofilaria immitis (Dirofilaria immitis): EC15 at up to 10 μg/mL

C[C@](C#N)(COc1cc(C#N)ccc1C(F)(F)F)NC(=O)c1ccc(SC(F)(F)F)cc1 [Zolvix, Monepantel, reference compound]
IC50 (HeLa): 34.1 µM | LD50 against H. Contortus (H. contortus): <41 nM | IC50 (MRC-5): 63.9 µM

CC(=O)OCC(C)(C#N)NC(=O)c1ccc(SC(F)(F)F)cc1 (centres unmarked) [ahpOH1, 2-Cyano-2-(4-((trifluoromethyl)thio)benzamido)propyl acetate]
IC50 (HeLa): > 100 µM | inhibition of the development of H. contortus larvae (H. contortus): severely and reproducibly inhibited | LD50 against H. Contortus (H. contortus): 550 nM | IC50 (MRC-5): > 100 µM

CC(C#N)(CO)NC(=O)c1ccc(SC(F)(F)F)cc1 (centres unmarked) [ahpOH, N-(2-cyano-1-hydroxypropan-2-yl)-4-((trifluoromethyl)thio)benzamide]
IC50 (HeLa): > 100 µM | inhibition of the development of H. contortus larvae (H. contortus): severely and reproducibly inhibited | LD50 against H. Contortus (H. contortus): 173 nM | IC50 (MRC-5): > 100 µM

CC(C#N)(CO)NC(=O)c1ccc(SC(F)(F)F)cc1 (centres unmarked) [drawing 36]
Activity against Dirofilaria immitis (Dirofilaria immitis): EC20 at up to 10 μg/mL
